26 compounds from US12209087B2, “AKT1 modulators” (Alterome Therapeutics, Inc., priority 2022, dated 2025) can be followed below.

In one experiment the target is T1, full length AKT E17K (Homo sapiens, UniProt P31749, E17K).
T1 construct: host or cells: HEK-293 (ATCC CRL-1573)
T1 sequence (P31749 whole entry E17K): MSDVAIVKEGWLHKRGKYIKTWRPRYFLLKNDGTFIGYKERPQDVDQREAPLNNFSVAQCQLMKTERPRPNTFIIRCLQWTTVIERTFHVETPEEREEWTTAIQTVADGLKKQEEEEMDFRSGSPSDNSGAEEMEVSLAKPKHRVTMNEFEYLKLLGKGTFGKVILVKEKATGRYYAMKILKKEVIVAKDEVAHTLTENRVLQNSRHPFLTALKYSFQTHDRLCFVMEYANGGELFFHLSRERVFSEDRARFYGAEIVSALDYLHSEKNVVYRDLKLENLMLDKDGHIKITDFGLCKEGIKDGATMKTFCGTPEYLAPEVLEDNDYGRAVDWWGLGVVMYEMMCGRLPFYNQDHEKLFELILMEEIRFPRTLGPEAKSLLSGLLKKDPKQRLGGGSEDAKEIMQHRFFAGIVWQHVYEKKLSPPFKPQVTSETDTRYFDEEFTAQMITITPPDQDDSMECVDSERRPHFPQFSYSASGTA
Kind of experiment: NanoBRET Target Engagement (TE) Assay. The following applies: competitive displacement of tracer in cells, read-out: AKT1 E17K IC50. The experiment is classed as cell-based. In a few lines: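 Compound and tracer incubated 2 h before luminescence at donor 450 nm and acceptor 600 nm, with extracellular signal inhibited. EC50 by sigmoidal variable-slope regression.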
(BRET reads energy transfer from a luciferase to a nearby fluorophore.)
What is called IC50 is the concentration needed to halve the response being measured. In the case of `COC(=O)c1ccc2nc(-c3cccnc3N)n(-c3ccc(CN4CCC(Nc5ccnc(C#N)n5)CC4)cc3)c2n1` [Example 414, Methyl 2-(2-aminopyridin-3-yl)-3-(4-((4-((2-cyanopyrimidin-4-yl)amino)piperidin-1-yl)methyl)phenyl)-3H-imidazo[4,5-b]pyridine-5-carboxylate], the IC50 is under 15 nM. As for `N#Cc1nccc(NC2CCN(Cc3ccc(-n4c(-c5nccnc5N)nc5ccc(-c6cnn(CC(N)=O)n6)nc54)cc3)CC2)n1` [Example 633, 2-(4-(2-(3-aminopyrazin-2-yl)-3-(4-((4-((2-cyanopyrimidin-4-yl)amino)piperidin-1-yl)methyl)phenyl)-3H-imidazo[4,5-b]pyridin-5-yl)-2H-1,2,3-triazol-2-yl)acetamide], the IC50 was 15 to 60 nM.

Turning to `N#Cc1nccc(NC2CC3(CCN(Cc4ccc(-n5c(-c6cccnc6N)nc6ccc(-c7ccccc7)nc65)cc4)CC3)C2)n1` [Example 362, 4-((7-(4-(2-(2-Aminopyridin-3-yl)-5-phenyl-3H-imidazo[4,5-b]pyridin-3-yl)benzyl)-7-azaspiro[3.5]nonan-2-yl)amino)pyrimidine-2-carbonitrile], the IC50 is under 15 nM. Still for that read-out and setting: then `CC(C)Oc1ccc(-c2ccc3nc(-c4cccnc4N)n(-c4ccc(CN5CCC(Nc6ccnc(C#N)n6)CC5)cc4)c3n2)cn1` [Example 642, 4-((1-(4-(2-(2-Aminopyridin-3-yl)-5-(6-isopropoxypyridin-3-yl)-3H-imidazo[4,5-b]pyridin-3-yl)benzyl)piperidin-4-yl)amino)pyrimidine-2-carbonitrile], with under 15 nM; and `N#Cc1nccc(NC2CCN(Cc3ccc(-n4c(-c5cccnc5N)nc5ccc(-c6cccnc6C#N)nc54)cc3)CC2)n1` [Example 409, 4-((1-(4-(2-(2-Aminopyridin-3-yl)-5-(2-cyanopyridin-3-yl)-3H-imidazo[4,5-b]pyridin-3-yl)benzyl)piperidin-4-yl)amino)pyrimidine-2-carbonitrile], with under 15 nM; and `CC(=O)Nc1cccc(-c2ccc3nc(-c4cccnc4N)n(-c4ccc(CN5CCC(Nc6ccnc(C#N)n6)CC5)cc4)c3n2)c1` [Example 440, N-(3-(2-(2-Aminopyridin-3-yl)-3-(4-((4-((2-cyanopyrimidin-4-yl)amino)piperidin-1-yl)methyl)phenyl)-3H-imidazo[4,5-b]pyridin-5-yl)phenyl)acetamide], with under 15 nM. As for `N#Cc1nccc(NC2CCN(Cc3ccc(-n4c(-c5cncnc5)nc5ccc(-c6ccc(F)cn6)nc54)cc3)CC2)n1` [Example 601, 4-((1-(4-(5-(5-Fluoropyridin-2-yl)-2-(pyrimidin-5-yl)-3H-imidazo[4,5-b]pyridin-3-yl)benzyl)piperidin-4-yl)amino)pyrimidine-2-carbonitrile], the IC50 is 600 to 10000 nM. `N#Cc1nccc(N2CC3(CCN(Cc4ccc(-n5c(-c6cccnc6N)nc6ccc(-c7ccccc7)nc65)cc4)CC3)C2)n1` [Example 361, 4-(7-(4-(2-(2-Aminopyridin-3-yl)-5-phenyl-3H-imidazo[4,5-b]pyridin-3-yl)benzyl)-2,7-diazaspiro[3.5]nonan-2-yl)pyrimidine-2-carbonitrile]: the IC50 was under 15 nM. On the same count and under the same terms, then `Cc1nncn1-c1ccc2nc(-c3cccnc3N)n(-c3ccc(CN4CCC(Nc5ccnc(C#N)n5)CC4)cc3)c2n1` [Example 588, 4-((1-(4-(2-(2-aminopyridin-3-yl)-5-(3-methyl-4H-1,2,4-triazol-4-yl)-3H-imidazo[4,5-b]pyridin-3-yl)benzyl)piperidin-4-yl)amino)pyrimidine-2-carbonitrile], with 15 to 60 nM; and `N#Cc1ncnc(N2C[C@H]3CN(Cc4ccc(-n5c(-c6cccnc6N)nc6ccc(-c7ccccc7)nc65)cc4)C[C@H]3C2)n1` [Example 340, 4-((3aR,6aS)-5-(4-(2-(2-Aminopyridin-3-yl)-5-phenyl-3H-imidazo[4,5-b]pyridin-3-yl)benzyl)hexahydropyrrolo[3,4-c]pyrrol-2(1H)-yl)-1,3,5-triazine-2-carbonitrile], with under 15 nM. As for `[2H]C([2H])(c1ccc(-n2c(-c3cccnc3N)nc3ccc(-c4ccc(F)cc4)nc32)cc1)N1CCC(Nc2ccnc(C#N)n2)CC1` [Example 489, 4-((1-((4-(2-(2-Aminopyridin-3-yl)-5-(4-fluorophenyl)-3H-imidazo[4,5-b]pyridin-3-yl)phenyl)methyl-d2)piperidin-4-yl)amino)pyrimidine-2-carbonitrile], the IC50 was under 15 nM.

As to `CC(C)n1cc(-c2ccc3nc(-c4cccnc4N)n(-c4ccc(CN5CCC(Nc6ccnc(C#N)n6)CC5)cc4)c3n2)cn1` [Example 479, 4-((1-(4-(2-(2-Aminopyridin-3-yl)-5-(1-isopropyl-1H-pyrazol-4-yl)-3H-imidazo[4,5-b]pyridin-3-yl)benzyl)piperidin-4-yl)amino)pyrimidine-2-carbonitrile], the IC50 is under 15 nM.

As for `N#Cc1nccc(NC2CCN(Cc3ccc(-n4c(-c5cccnc5N)nc5ccc(-c6ncccc6F)nc54)cc3)CC2)n1` [Example 570, 4-((1-(4-(2-(2-Aminopyridin-3-yl)-5-(3-fluoropyridin-2-yl)-3H-imidazo[4,5-b]pyridin-3-yl)benzyl)piperidin-4-yl)amino)pyrimidine-2-carbonitrile], the IC50 is under 15 nM.

The same experiment, now with this note: competitive tracer displacement in living cells, read-out: AKT1 E17K IC50.
With `N#Cc1nc2cc(C(=O)NC3CCN(Cc4ccc(-n5c(-c6cccnc6N)nc6cccnc65)cc4)CC3)ccc2s1` [Example 34, N-(1-(4-(2-(2-aminopyridin-3-yl)-3H-imidazo[4,5-b]pyridin-3-yl)benzyl)piperidin-4-yl)-2-cyanobenzo[d]thiazole-5-carboxamide], the IC50 lay in the range of 60 to 600 nM. Take `N#Cc1nccc(NC2CCN(Cc3ccc(-n4c(-c5cccnc5N)nc5ccc(C6CCOCC6)nc54)cc3)CC2)n1` [Example 299, 4-((1-(4-(2-(2-Aminopyridin-3-yl)-5-(tetrahydro-2H-pyran-4-yl)-3H-imidazo[4,5-b]pyridin-3-yl)benzyl)piperidin-4-yl)amino)pyrimidine-2-carbonitrile]: the half-maximal inhibitory concentration (IC50) was under 15 nM. Same read-out and setting: then `N#Cc1cnccc1C(=O)NC1CCN(Cc2ccc(-n3c(-c4cccnc4N)nc4cccnc43)cc2)CC1` [Example 36, N-(1-(4-(2-(2-Aminopyridin-3-yl)-3H-imidazo[4,5-b]pyridin-3-yl)benzyl)piperidin-4-yl)-3-cyanoisonicotinamide], with 600 to 10000 nM; and `N#Cc1cc(C(=O)NC2C3CCC2CN(Cc2ccc(-n4c(-c5cccnc5N)nc5ccc(-c6ccccc6)nc54)cc2)C3)ncn1` (centres unmarked) [Example 230, N-(3-(4-(2-(2-aminopyridin-3-yl)-5-phenyl-3H-imidazo[4,5-b]pyridin-3-yl)benzyl)-3-azabicyclo[3.2.1]octan-8-yl)-6-cyanopyrimidine-4-carboxamide], with 60 to 600 nM. On the same count and under the same terms, then `N#Cc1cccnc1C(=O)NCc1ccc(-n2c(-c3cccnc3N)nc3cccnc32)cc1` [Example 101, N-(4-(2-(2-Aminopyridin-3-yl)-3H-imidazo[4,5-b]pyridin-3-yl)benzyl)-3-cyanopicolinamide], with 600 to 10000 nM. Same read-out and setting: under `N#Cc1nccc(NC2CCN(Cc3ccc(-n4c(-c5cccnc5N)nc5ccc(C(N)=O)nc54)cc3)CC2)n1` [Example 288, 2-(2-aminopyridin-3-yl)-3-(4-((4-((2-cyanopyrimidin-4-yl)amino)piperidin-1-yl)methyl)phenyl)-3H-imidazo[4,5-b]pyridine-5-carboxamide] stands 15 to 60 nM; under `N#Cc1ncnc(N2CCC3(CC2)CN(Cc2ccc(-n4c(-c5cccnc5N)nc5ccc(-c6ccccc6)nc54)cc2)C3)n1` [Example 268, 4-(2-(4-(2-(2-Aminopyridin-3-yl)-5-phenyl-3H-imidazo[4,5-b]pyridin-3-yl)benzyl)-2,7-diazaspiro[3.5]nonan-7-yl)-1,3,5-triazine-2-carbonitrile], under 15 nM; under `N#Cc1ncc(N2CCN(Cc3ccc(-n4c(-c5cccnc5N)nc5ccc(-c6ccccc6)nc54)cc3)CC2)cn1` [Example 97, 5-(4-(4-(2-(2-aminopyridin-3-yl)-5-phenyl-3H-imidazo[4,5-b]pyridin-3-yl)benzyl)piperazin-1-yl)pyrimidine-2-carbonitrile], 15 to 60 nM. As to `N#Cc1ncnc(N2CCN(Cc3ccc(-n4c(-c5cccnc5N)nc5ccc(-c6ccccc6Cl)nc54)cc3)CC2)n1` [Example 304, 4-(4-(4-(2-(2-Aminopyridin-3-yl)-5-(2-chlorophenyl)-3H-imidazo[4,5-b]pyridin-3-yl)benzyl)piperazin-1-yl)-1,3,5-triazine-2-carbonitrile], the IC50 is under 15 nM. In the case of `N#Cc1nccc(N2CCN(Cc3ccc(-n4c(-c5cccnc5N)nc5ccc(-c6cccc(=O)[nH]6)nc54)cc3)CC2)n1` [Example 238, 4-(4-(4-(2-(2-Aminopyridin-3-yl)-5-(6-oxo-1,6-dihydropyridin-2-yl)-3H-imidazo[4,5-b]pyridin-3-yl)benzyl)piperazin-1-yl)pyrimidine-2-carbonitrile], the IC50 lay within 15 to 60 nM. Turning to `N#Cc1ncccc1C(=O)NC1CCN(Cc2ccc(-n3c(-c4cccnc4N)nc4cccnc43)cc2)CC1` [Example 27, N-(1-(4-(2-(2-Aminopyridin-3-yl)-3H-imidazo[4,5-b]pyridin-3-yl)benzyl)piperidin-4-yl)-2-cyanonicotinamide], the IC50 was 600 to 10000 nM. For the compound `N#Cc1ccnc(N2CCN(Cc3ccc(-n4c(-c5cccnc5N)nc5cccnc54)cc3)CC2)n1` [Example 20, 2-(4-(4-(2-(2-aminopyridin-3-yl)-3H-imidazo[4,5-b]pyridin-3-yl)benzyl)piperazin-1-yl)pyrimidine-4-carbonitrile], the IC50 was in the range of 600 to 10000 nM. On the same count and under the same terms, then `N#Cc1ncnc(N2CCCC3(CCN(Cc4ccc(-n5c(-c6cccnc6N)nc6ccc(-c7ccccc7)nc65)cc4)CC3)C2)n1` [Example 254, 4-(9-(4-(2-(2-Aminopyridin-3-yl)-5-phenyl-3H-imidazo[4,5-b]pyridin-3-yl)benzyl)-2,9-diazaspiro[5.5]undecan-2-yl)-1,3,5-triazine-2-carbonitrile], with under 15 nM.
